The values that follow are results of earlier work, collected in patent US20030031676A1, “Conjugate compounds for treating atheroma and other diseases” (Pharmacyclics, Inc., priority 1999, published 2003).

The conditions of this data set: animal models.

Regarding lutetium (III) texaphyrin, the radiation sensitization activity result is on record as “lack of radiation sensitization activity”.
